Assay results published in patent US20250163057A1, “DCN-1 MODULATING COMPOUNDS AND METHODS OF USE THEREOF” (Cellarity, Inc., priority 2023, published 2025).
Like-named read-outs stand apart in the source and are kept apart here.

Tests used:
DCN1 protein = DCN1 protein (Homo sapiens (Human), UniProt Q96GG9); test: Intact Protein MS Analysis with the RapidFire-TOF System (covalent adduct formation); assay type: binding; conditions: MS Emax; 400 nM DCN1, 3 hours at room temperature
How it was run: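 Tag-cleaved human DCN1 (400 nM) expressed in E. coli, in 25 mM Tris-HCl, 200 mM NaCl, 1 mM DTT, was incubated with 11 compound concentrations for 3 h at room temperature and quenched with 0.2% formic acid. Intact-protein Q-TOF MS with deconvolution detected the compound adduct mass.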

[1] = system: fetal hemoglobin gene HBG1; test: HBG1 Nanostring Assay in CD34+ HSPC erythroid differentiation culture; assay type: cell-based, human; conditions: for EC50: Homo sapiens, 240 h, HBG1 induction, Day10 of erythroid differentiation; for Nanostring Ymax obs (%): relative to a control compound (C1)
How it was run: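 HBG1 counts came from direct nCounter hybridization (67° C, 22 h) of day-10 lysates, normalized to ERCC positive controls and a housekeeping gene, giving EC50 and Ymax versus a reference compound. Compounds in 0.1% DMSO were present from day −2 while cells underwent EPO/SCF/IL-3 erythroid differentiation, with IL-3 dropped at day 7, at 37° C.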

[2] = molecular target: DCN1 (DCUND1) protein PONY domain (Homo sapiens (Human), UniProt Q96GG9); test: TR-FRET assay, DCN1 binding with FAM-labeled probe
Sequence of DCN1 (DCUND1) protein PONY domain (Q96GG9 60-248): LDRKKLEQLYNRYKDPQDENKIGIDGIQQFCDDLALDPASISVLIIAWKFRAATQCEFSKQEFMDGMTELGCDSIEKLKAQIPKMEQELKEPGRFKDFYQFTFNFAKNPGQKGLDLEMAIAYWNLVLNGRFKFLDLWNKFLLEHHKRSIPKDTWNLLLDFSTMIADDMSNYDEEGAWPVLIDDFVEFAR
How it was run: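 Biotinylated DCN1 PONY domain, labeled with streptavidin-Tb, was competed against a FAM-labeled non-covalent DCN1 inhibitor probe in buffer with TritonX and 200 mM NaCl. Conditions were 5 nM DCN1 with 20 nM FAM-probe, or 0.31 nM DCN1 with 100 nM FAM-plus 800 nM unlabeled probe. The TR-FRET ratio was read at 1, 5 and 24 h (0.1% DMSO).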

[3] = system: Cullin-3 (CUL3) neddylation; test: AlphaLISA assay for Cullin-3 (CUL3) neddylation in TF 1 cells; assay type: cell-based; conditions: Homo sapiens, TF-1, 3 h, 3 hours treatment
How it was run: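 Neddylated CUL3 was quantified by AlphaLISA in lysates of TF 1 cells exposed for 3 h to test compound in IMDM without supplements. Percent inhibition set between vehicle and 1 μM DI-1548 positive control; IC50 derived by Hill-equation fitting of dose-response curves.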

[4] = 24 hr after treatment with compound, read-out: TR FRET IC50 24 hr
[5] = read-out: TR FRET IC50 1 hr, 1 hr after treatment with compound
[6] = TR FRET IC50 1 hr (nM), 1 hr after treatment with compound

Sequence of DCN1 protein (Q96GG9 whole entry): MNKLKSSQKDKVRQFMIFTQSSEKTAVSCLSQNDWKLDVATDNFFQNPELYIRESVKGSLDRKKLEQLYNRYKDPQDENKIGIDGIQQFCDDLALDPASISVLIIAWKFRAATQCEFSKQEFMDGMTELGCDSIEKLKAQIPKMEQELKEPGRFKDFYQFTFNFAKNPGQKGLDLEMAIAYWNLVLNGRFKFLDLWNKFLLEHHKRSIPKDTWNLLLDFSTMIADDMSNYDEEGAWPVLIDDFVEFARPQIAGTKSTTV

C=C(C)C(=O)Nc1nn(-c2ccccc2)c2c1[C@H](c1ccc(F)cc1)[C@H](NC(=O)c1cccc(C(F)(F)F)c1)C(=O)N2CC (racemic) [Compound I-26]
% Adduct Formation (DCN1 protein): + (MS Emax % adduct formation greater than or equal to 0.0 and less than or equal to 30.0) | EC50 [1]: 100 to 1000 nM | Nanostring Ymax obs (%) [1]: ++ (Nanostring Ymax greater than 50.0 and less than or equal to 100.0) | IC50 [2, 4]: ≤ 200 nM | IC50 [2, 5]: ≤ 200 nM | IC50 [3]: 100 to 1000 nM

C/C=C(\CN1CCOCC1)C(=O)NCc1nn(-c2ccccc2)c2c1[C@@H](c1ccc(F)cc1)[C@H](NC(=O)c1cccc(C(F)(F)F)c1)C(=O)N2CC (racemic) [Compound I-27]
% Adduct Formation (DCN1 protein): + (MS Emax % adduct formation greater than or equal to 0.0 and less than or equal to 30.0) | EC50 [1]: 100 to 1000 nM | Nanostring Ymax obs (%) [1]: ++ (Nanostring Ymax greater than 50.0 and less than or equal to 100.0) | IC50 [2, 4]: ≤ 200 nM | IC50 [2, 5]: ≤ 200 nM | IC50 [3]: ≤ 100 nM

C=C(CC(=O)OC)C(=O)NCc1nn(-c2ccccc2)c2c1[C@H](c1ccc(F)cc1)[C@H](NC(=O)c1cccc(C(F)(F)F)c1)C(=O)N2CC (racemic) [Compound I-103]
% Adduct Formation (DCN1 protein): + (MS Emax % adduct formation greater than or equal to 0.0 and less than or equal to 30.0) | EC50 [1]: 100 to 1000 nM | Nanostring Ymax obs (%) [1]: + (Nanostring Ymax greater than or equal to 0.0 and less than or equal to 50.0) | IC50 [2, 4]: 200 to 1000 nM | IC50 [2, 6]: 200 to 1000 nM | IC50 [3]: > 1000 nM

C=C(CC(=O)NCc1nn(-c2ccccc2)c2c1[C@@H](c1ccc(F)cc1)[C@H](NC(=O)c1cccc(C(F)(F)F)c1)C(=O)N2CC)C(=O)OC [Compound I-132]
% Adduct Formation (DCN1 protein): ++ (MS Emax % adduct formation greater than 30.0 and less than or equal to 80.0) | EC50 [1]: > 1000 nM | Nanostring Ymax obs (%) [1]: + (Nanostring Ymax greater than or equal to 0.0 and less than or equal to 50.0) | IC50 [2, 4]: ≤ 200 nM | IC50 [2, 6]: 200 to 1000 nM | IC50 [3]: 100 to 1000 nM

C=CC(=O)N(C)Cc1nn(-c2ccccc2)c2c1[C@H](c1ccc(F)cc1)[C@H](NC(=O)c1cccc(C(F)(F)F)c1)C(=O)N2CC (racemic) [Compound I-29]
% Adduct Formation (DCN1 protein): + (MS Emax % adduct formation greater than or equal to 0.0 and less than or equal to 30.0) | EC50 [1]: > 1000 nM | Nanostring Ymax obs (%) [1]: + (Nanostring Ymax greater than or equal to 0.0 and less than or equal to 50.0) | IC50 [2, 4]: 1000 to 3000 nM | IC50 [2, 6]: 1000 to 3000 nM | IC50 [3]: > 1000 nM

CCN1C(=O)[C@@H](NC(=O)c2cccc(C(F)(F)F)c2)[C@@H](C2CC2)c2c(C(=O)N3CC(F)(F)C[C@H]3C#N)nn(C3CCOCC3)c21 [Compound I-378]
% Adduct Formation (DCN1 protein): +++ (MS Emax % adduct formation greater than 80.0 and less than or equal to 100.0) | EC50 [1]: ≤ 100 nM | Nanostring Ymax obs (%) [1]: ++ (Nanostring Ymax greater than 50.0 and less than or equal to 100.0) | IC50 [2, 4]: ≤ 200 nM | IC50 [2, 5]: ≤ 200 nM | IC50 [3]: ≤ 100 nM

CCN1C(=O)[C@@H](NC(=O)c2cccc(C(F)(F)F)c2)[C@@H](c2ccc(F)cc2)c2c(C(=O)N3CC(F)(F)C[C@H]3C#N)nn(-c3ccccc3)c21 (racemic) [Compound I-251, N-((4RS,5RS)-3-(I-2-cyano-4,4-difluoropyrrolidine-1-carbonyl)-7-ethyl-4-(4-fluorophenyl)-6-oxo-1-phenyl-4,5,6,7-tetrahydro-1H-pyrazolo[3,4-b]pyridine-5-yl)-3-(trifluoromethyl)benzamide]
% Adduct Formation (DCN1 protein): +++ (MS Emax % adduct formation greater than 80.0 and less than or equal to 100.0) | EC50 [1]: 100 to 1000 nM | Nanostring Ymax obs (%) [1]: ++ (Nanostring Ymax greater than 50.0 and less than or equal to 100.0) | IC50 [2, 4]: ≤ 200 nM | IC50 [2, 6]: ≤ 200 nM | IC50 [3]: ≤ 100 nM

CCN1C(=O)[C@@H](NC(=O)c2cccc(C(F)(F)F)c2)[C@@H](c2ccc(F)cc2)c2c(CNC(=O)CC#N)nn(-c3ccccc3)c21 (racemic) [Compound I-147, rac-N-((4R,5R)-3-((2-cyanoacetamido)methyl)-7-ethyl-4-(4-fluorophenyl)-6-oxo-1-phenyl-4,5,6,7-tetrahydro-1H-pyrazolo[3,4-b]pyridine-5-yl)-3-(trifluoromethyl)benzamide]
% Adduct Formation (DCN1 protein): + (MS Emax % adduct formation greater than or equal to 0.0 and less than or equal to 30.0) | EC50 [1]: > 1000 nM | Nanostring Ymax obs (%) [1]: + (Nanostring Ymax greater than or equal to 0.0 and less than or equal to 50.0) | IC50 [2, 4]: 200 to 1000 nM | IC50 [2, 6]: 1000 to 3000 nM | IC50 [3]: 100 to 1000 nM

CCN1C(=O)[C@H](NC(=O)c2cccc(C(F)(F)F)c2)[C@H](c2ccc(F)cc2)c2c(CN(C)C#N)nn(-c3ccccc3)c21 [Compound I-20]
% Adduct Formation (DCN1 protein): ++ (MS Emax % adduct formation greater than 30.0 and less than or equal to 80.0) | EC50 [1]: > 1000 nM | Nanostring Ymax obs (%) [1]: + (Nanostring Ymax greater than or equal to 0.0 and less than or equal to 50.0) | IC50 [2, 4]: 1000 to 3000 nM | IC50 [2, 6]: 1000 to 3000 nM | IC50 [3]: > 1000 nM

CCN1C(=O)[C@@H](NC(=O)c2cccc(C(F)(F)F)c2)[C@@H](c2ccc(F)cc2)c2c(CN3CC=CS3(=O)=O)nn(-c3ccccc3)c21 (racemic) [Compound I-110]
% Adduct Formation (DCN1 protein): + (MS Emax % adduct formation greater than or equal to 0.0 and less than or equal to 30.0) | EC50 [1]: > 1000 nM | Nanostring Ymax obs (%) [1]: + (Nanostring Ymax greater than or equal to 0.0 and less than or equal to 50.0) | IC50 [2, 4]: 200 to 1000 nM | IC50 [2, 6]: 200 to 1000 nM | IC50 [3]: 100 to 1000 nM

CCN1C(=O)[C@@H](NC(=O)c2cccc(C(F)(F)F)c2)[C@@H](c2ccc(F)cc2)c2c(NC(=O)/C=C/C(=O)OC)nn(-c3ccccc3)c21 (racemic) [Compound I-136]
% Adduct Formation (DCN1 protein): +++ (MS Emax % adduct formation greater than 80.0 and less than or equal to 100.0) | EC50 [1]: > 1000 nM | Nanostring Ymax obs (%) [1]: + (Nanostring Ymax greater than or equal to 0.0 and less than or equal to 50.0) | IC50 [2, 6]: 200 to 1000 nM | IC50 [3]: ≤ 100 nM

CCN1C(=O)[C@@H](NC(=O)c2cccc(C(F)(F)F)c2)[C@@H](C2CC2)c2c(C(=O)N(C)CC#N)nn(C3CCOCC3)c21 [Compound I-374]
% Adduct Formation (DCN1 protein): +++ (MS Emax % adduct formation greater than 80.0 and less than or equal to 100.0) | EC50 [1]: ≤ 100 nM | Nanostring Ymax obs (%) [1]: +++ (Nanostring Ymax greater than 100.0) | IC50 [2, 4]: ≤ 200 nM | IC50 [2, 6]: 200 to 1000 nM | IC50 [3]: ≤ 100 nM

CCN1C(=O)[C@H](NC(=O)c2cccc(C(F)(F)F)c2)[C@H](c2ccc(F)cc2)c2c([C@@H](C)NC#N)nn(-c3ccccc3)c21 [Compound I-13, N-((4R,5R)-3-((R)-1-cyanamidoethyl)-7-ethyl-4-(4-fluorophenyl)-6-oxo-1-phenyl-4,5,6,7-tetrahydro-1H-pyrazolo[3,4-b]pyridin-5-yl)-3-(trifluoromethyl)benzamide]
% Adduct Formation (DCN1 protein): ++ (MS Emax % adduct formation greater than 30.0 and less than or equal to 80.0) | EC50 [1]: > 1000 nM | Nanostring Ymax obs (%) [1]: + (Nanostring Ymax greater than or equal to 0.0 and less than or equal to 50.0) | IC50 [2, 4]: 1000 to 3000 nM | IC50 [2, 6]: 1000 to 3000 nM | IC50 [3]: 100 to 1000 nM

CCN1C(=O)[C@@H](NC(=O)c2cccc(C(F)(F)F)c2)[C@@H](c2ccc(F)cc2)c2c(C(=O)NCC#N)nn(-c3ccccc3)c21 [Compound I-148]
% Adduct Formation (DCN1 protein): +++ (MS Emax % adduct formation greater than 80.0 and less than or equal to 100.0) | Nanostring Ymax obs (%) [1]: + (Nanostring Ymax greater than or equal to 0.0 and less than or equal to 50.0) | IC50 [2, 4]: 200 to 1000 nM | IC50 [2, 6]: 1000 to 3000 nM | IC50 [3]: 100 to 1000 nM
